Data published in patent US20120035221A1, “Method of Fungal Pathogen Control in Grass or Turf” (priority 2004, published 2012).

Tests used:
grass = assay: Grass pot trial, dry weight and visual vigor under powdery mildew (Example 3); format: in vivo; details: 8 WAT, 1 to 5 scale, powdery mildew infestation, in words
Description: Six-inch (15-cm) diameter pots were filled to the rim with ProMix® BX potting soil and leveled off. Grass seed (0.5 g) was distributed evenly over the whole mix surface. The seed was watered in very gently. The grass was fertilized once 17 days later with Peters 20-10-20 at 100 ppm. The first cut was done on 11 days later; the grass was allowed to re-grow and cut 26 days later. Cutting was done at 2 in. (5 cm) height, using a round plastic cylinder that fit over the pot. The cut was made with hedge sheers and finished with scissors. Treatments were applied one day later using a volume of 20 ml per pot, followed with 117 ml of water/pot. The grass clippings were harvested an.d dried for dry weight determination 2 weeks after treatment (“WAT”) and 4 WAT. The grass was rated visually for vigor 8 WAT, using a 1 to 5 scale, before harvesting at the soil line. Dry weight and vigor data were subjected to analysis of variance (Fisher's Protected LSD, P=0.05).
The grass had germinated well within 30 days. Powdery mildew was noticed on some plants at 43 days after seeding, and became widespread in the plot. The powdery mildew coating appeared to grow more densely on the untreated plants. […] The invasion of the powdery mildew prevented the assessment of imidacloprid in the absence of pest pressure but it was serendipitously discovered that imidacloprid could have an effect on disease resistance in turf.

powdery mildew = assay: Greenhouse trial, powdery mildew severity on Kentucky bluegrass (Example 4); format: in vivo, Erysiphe graminis; details: for Powdery mildew rating: 1 = best (no disease) to 9 = dead
Curvularia [1] = assay: Curvularia on bermudagrass 'TifEagle', golf course field trial (Example 8); format: in vivo; details: for % turf infected with disease (Curvularia): imidacloprid 0.4 lb/A single application, fungicide programs every two weeks
Protocol: Established bermudagrass (cv. ‘TifEagle’) on a golf course in Florida was treated in late spring with imidacloprid at 0.4 lb/A (i.e., 0.45 kg/Ha). For comparison, two different fungicide spray programs were applied to nearby plots. The two fungicide spray programs were (1) fosetyl+iprodione at (4 oz.+4 oz.) per 1000 ft^2 [(1.2 g+1.2 g) per m^2] alternated with fosetyl+trifloxystrobin at (4 oz.+0.15 oz.) per 1000 ft^2 [(1.2 g+46 mg) per m^2], and (2) fosetyl+iprodione at (4 oz.+4 oz.) per 1000 ft^2 [(1.2 g+1.2 g) per m^2] alternated with flutolanil at 2.2 oz product/1000 ft^2 (0.67 g) per m^2). The fungicide applications were made every two weeks. In comparison, the imidacloprid-treated plots received only a single application of active ingredient.
At the time of treatment, Curvularia disease was just beginning to develop (i.e., the mean percent infection in all plots was 3% of the turf cover). The spread of the disease was monitored weekly for twelve weeks, and turf quality, measured on a 0 to 9 scale (0=dead turf and 9=perfect quality). […] Effects of the various treatments on disease incidence are described in Table 6 (where A+a number represents days after application of imidacloprid). Data are expressed as % turf infected with disease.

[2] = tested on: Sclerotinia homoeocarpa (Dollar Spot); assay: Dollar Spot infection of bentgrass 'Crenshaw' turf flats (Example 1); format: in vivo; details: for % Dollar Spot: imidacloprid alone 481 g/Ha
Protocol: Bentgrass var. ‘Crenshaw’ was seeded in 10 in.×12 in. (25 cm×30 cm) peat flats containing steam sterilized 80/20 greens mix. Flats were watered daily with an overhead misting system. Plots were fertilized with 200 ml of a 288 ppm 20-20-20 Regal Green fertilizer solution 23 days later. lmidacloprid (481 g/Ha) was applied according to the Merit® insecticide label the same day that fertilizer was applied. Fungicide treatments were applied 7 days later with a CO2 backpack sprayer at 2.0 gal./1000 ft^2 (i.e., 81.5 liters/1000 m^2) with a single 8003E nozzle. Two doses of each fungicide were tested. Plots were inoculated with Sclerotinia homoeocarpa (Dollar Spot) 2 days after the fungicides were applied by placing two 1-in. (2.5-cm) pieces of infested fescue leaves on each flat. Results are presented in Table 1 (where B+a number represents days after application of the herbicide component).

Pythium aphandermatum = assay: Pythium infection of bentgrass 'Crenshaw' turf flats (Example 2); format: in vivo, P. aphanidermatum; details: imidacloprid alone 481 g/Ha
Protocol: Bentgrass var. ‘Crenshaw’ was seeded in 10 in.×12 in. (ca. 25 cm×30 cm) peat flats containing steam sterilized 80/20 greens mix. Flats were watered daily with an overhead misting system. Plots were fertilized on 26 days later with 200 ml of a 288 ppm 20-20-20 Regal Green fertilizer solution. Treatments were applied with a CO2 backpack sprayer at 2.0 gal./1000 ft^2 (i.e., 81.5 liters/1000 m^2), with a single 8003E nozzle. lmidacloprid (481 g/Ha) was applied the same day and mancozeb fungicide was applied one week later. Two doses of each fungicide were tested. Plots were inoculated with Pythium aphandermatum 2 days after the fungicides were applied by placing two 1-in (2.5-cm) pieces of infested fescue leaves on each flat. Results are presented in Table 2 (where B+a number represents days after application of the herbicide component).

Pythium aphanedermatum = assay: Pythium infection of bentgrass sod flats (Example 7); format: in vivo; details: for % Pythium: imidacloprid alone 481 g/Ha
Protocol: Bentgrass sod var. ‘Crenshaw’ was cut and placed in 6″×7″ (15 cm×17.5 cm) peat flats containing steam-sterilized 80/20 greens mix during the spring. To create conditions favorable for the development of Pythium, the flats were watered daily with an overhead misting system to provide conditions favorable to the development on disease. In addition, plots were fertilized weekly with 100 ml of a 244 ppm 20-20-20 Regal Green fertilizer solution. Imidacloprid at 481 g/Ha was applied four days after being placed in the flats. Fungicides were applied ten days after application of imidacloprid with a CO2 backpack sprayer at 2.0 gal. /1000 ft^2 (i.e., 81.5 liters/1000 m^2) using a single 8003E nozzle. Plots were inoculated with 2 one-inch […] sections of Pythium aphanedermatum-infested fescue leaves three days after application of the fungicides, and the percent infection in the plots was measured for the next 20 days. Results are presented in Table 5 (where A+a number represents days after application of imidacloprid).

Curvularia [3] = assay: Disease infection of turf flats treated with Merit 75 WP (Example 5); format: in vivo; details: for percent infection (Curvularia): Kentucky bluegrass
Protocol: Four sets of twenty-four 10 in.×12 in. (25 cm×30 cm) flats were filled with sterilized sand and each set was seeded with either Kentucky bluegrass, Crenshaw L-93 bentgrass, bermudagrass, or K-31 tall fescue. Each flat was fertilized weekly with 20-20-20 soluble fertilizer at 0.144 g per 200 ml of water (equivalent to 4 lbs/year/acre). The trial was replicated once.
Twelve flats in each set were treated with Merit 75 WP equivalent to 8.6 oz/acre per 80 gal. (ca. […] per 100 liter) of water (spray application) for each turf variety and twelve flats remained untreated. Replicate 1 was treated 25 days after seeding and Replicate 2 was treated 28 days after seeding. Disease outbreaks began approximately the time of treatment. Assessments of the infection percentage were done at 13 and 25 days after treatment. […] The percent disease infection at the first and second assessments in the first trial was 22 and 26%, respectively, while the percent infection in the imidacloprid treated flats was 1 and 8% at the first and second assessment dates, respectively. In the second trial, disease pressure was lower, but the untreated flats had 3 and 8% infection at the first and second assessment dates, whereas the imidacloprid treated flats had 0.5 and 2% at the two assessment dates.

Rhizoctonia solani = assay: Brown Patch infection of bentgrass 'Crenshaw' turf flats (Example 6); format: in vivo; details: for % Brown Patch infection: imidacloprid alone 481 g/Ha
Protocol: Bentgrass var. ‘Crenshaw’ was seeded in 10 in.×12 in. (25 cm×30 cm) peat flats containing steam sterilized 80/20 greens mix. Flats were watered daily with an overhead misting system. Plots were fertilized on 11/20 with 200 ml of a 288 ppm 20-20-20 Regal Green fertilizer solution. Treatments were applied with a CO2 backpack sprayer at 2.0 gal./1000 ft^2 (i.e., 81.5 liters/1000 m^2) and a single 8003E nozzle. Imidacloprid was applied on 16 days after seeding and fungicides applied 21 days after seeding and 35 days after seeding. Plots were inoculated 18 days after seeding with 0.25 g of fescue seed infected with Rhizoctonia solani. Results are presented in Table 4 (where B+a number represents days after application of the herbicide component).

## O=[N+]([O-])NC1=NCCN1Cc1ccc(Cl)nc1 [imidacloprid]
grass
  visual vigor ratings: visual vigor ratings indicate a benefit from the imidacloprid treatments
Powdery mildew; 2 Weeks after treatment, 0.25 lbs/A (0.28 kg/Ha)
  Powdery mildew rating: 3.4
Powdery mildew; 2 Weeks after treatment, 0.4 lbs/A (0.45 kg/Ha)
  Powdery mildew rating: 3.4
Powdery mildew; 2 Weeks after treatment, 1.0 lbs/A (1.12 kg/Ha)
  Powdery mildew rating: 3.4
Powdery mildew; 6 WAT evaluation, treatments of imidacloprid, untreated 4.2, 1 to 9 scale
  disease severity rating (powdery mildew): 3.1
Powdery mildew; 6 Weeks after treatment, 0.25 lbs/A (0.28 kg/Ha)
  Powdery mildew rating: 3.2
Powdery mildew; 6 Weeks after treatment, 0.4 lbs/A (0.45 kg/Ha)
  Powdery mildew rating: 3.1
Powdery mildew; 6 Weeks after treatment, 1.0 lbs/A (1.12 kg/Ha)
  Powdery mildew rating: 3.1
Curvularia [1]; A + 1
  % turf infected with disease (Curvularia): 1%
Curvularia [1]; A + 8
  % turf infected with disease (Curvularia): 1%
Curvularia [1]; A + 15
  % turf infected with disease (Curvularia): 1%
Curvularia [1]; A + 22
  % turf infected with disease (Curvularia): 0%
Curvularia [1]; A + 29
  % turf infected with disease (Curvularia): 0%
Curvularia [1]; A + 37
  % turf infected with disease (Curvularia): 0%
Curvularia [1]; A + 43
  % turf infected with disease (Curvularia): 0%
Curvularia [1]; A + 51
  % turf infected with disease (Curvularia): 16%
Curvularia [1]; A + 58
  % turf infected with disease (Curvularia): 21%
Curvularia [1]; A + 66
  % turf infected with disease (Curvularia): 54%
Curvularia [1]; A + 72
  % turf infected with disease (Curvularia): 30%
Curvularia [1]; A + 79
  % turf infected with disease (Curvularia): 34%
Curvularia [1]; A + 86
  % turf infected with disease (Curvularia): 38%
Curvularia [1]; A + 94
  % turf infected with disease (Curvularia): 16%
Curvularia [1]; after 8 WAT to end of trial, in words
  development of Curvularia disease incidence compared with the other plots: increased at a much slower rate than did the untreated control
[2]; B + 7
  % Dollar Spot: 16.7%
[2]; B + 10
  % Dollar Spot: 28.3%
[2]; B + 13
  % Dollar Spot: 35.0%
[2]; B + 17
  % Dollar Spot: 38.3%
[2]; B + 21
  % Dollar Spot: 41.7%
[2]; B + 24
  % Dollar Spot: 48.3%
[2]; imidacloprid alone, in words
  effect of imidacloprid alone on incidence of disease (Dollar Spot): no affect on incidence of disease
Pythium aphandermatum; B + 6
  % Pythium: 11.7%
Pythium aphandermatum; B + 8
  % Pythium: 20.0%
Pythium aphandermatum; B + 14
  % Pythium: 36.7%
Pythium aphanedermatum; A + 8
  % Pythium: 17.5%
Pythium aphanedermatum; A + 11
  % Pythium: 32.5%
Pythium aphanedermatum; A + 15
  % Pythium: 40.0%
Pythium aphanedermatum; A + 18
  % Pythium: 38.8%
Pythium aphanedermatum; A + 22
  % Pythium: 25.0%
Pythium aphanedermatum; A + 28
  % Pythium: 12.0%
Pythium aphanedermatum; from 11 days after treatment on, in words
  Pythium in plots treated with imidacloprid alone versus untreated plots: much less Pythium than did the untreated plots
Curvularia [3]; first trial, first assessment (13 days after treatment), untreated 22%
  percent infection (Curvularia): 1%
Curvularia [3]; first trial, second assessment (25 days after treatment), untreated 26%
  percent infection (Curvularia): 8%
Curvularia [3]; second trial, first assessment, untreated 3%
  percent infection (Curvularia): 0.5%
Curvularia [3]; second trial, second assessment, untreated 8%
  percent infection (Curvularia): 2%
Curvularia [3]; bentgrass, bermudagrass, tall fescue, either trial, in words
  control of the other diseases on the other turf varieties: did not provide control of the other diseases
Curvularia [3]; both replicates, in words
  control of Curvularia on the Kentucky bluegrass: good control of Curvularia
Rhizoctonia solani; B + 6
  % Brown Patch infection: 53.3%
Rhizoctonia solani; B + 8
  % Brown Patch infection: 73.3%
Rhizoctonia solani; B + 10
  % Brown Patch infection: 80.0%
Rhizoctonia solani; in words
  effect of imidacloprid alone on the disease (Brown Patch): no effect on the disease
